# Laboratory results taken from ChEMBL document CHEMBL1201862, “PubChem BioAssay data set” (2004).
#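 Assay format: 96-well plates, 48-hour exposure. Here, GI50 denotes the concentration required for 50% inhibition of growth.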 Active and inactive are the calls of the source. Cut-off read from the data, not from the text of the source: active = GI50 up to about 1.1 µM and inactive = higher.
# Legend:
# Experiment in all cases: NCI anticancer screen, dose series, 48 h
# SF-268 = test system: SF-268
# LOX IMVI = test system: LOX IMVI
# U-251 = test system: U-251
# A498 = test system: A498
# HCT-15 = test system: HCT-15
# Malme-3M = test system: Malme-3M
# RPMI-8226 = test system: RPMI-8226
# HOP-62 = test system: HOP-62
# MDA-MB-231 = test system: MDA-MB-231
# NCI-H522 = test system: NCI-H522
# A549 = test system: A549
# SR = test system: SR
# SN12C = test system: SN12C
# SK-OV-3 = test system: SK-OV-3
# HCC 2998 = test system: HCC 2998
# CAKI-1 = test system: CAKI-1
# NCI-H460 = test system: NCI-H460
# IGROV-1 = test system: IGROV-1
# K562 = test system: K562
# OVCAR-3 = test system: OVCAR-3
SMILES,GI50 (SF-268),GI50 (LOX IMVI),GI50 (U-251),GI50 (A498),GI50 (HCT-15) [µM],GI50 (Malme-3M),GI50 (RPMI-8226),GI50 (HOP-62),GI50 (MDA-MB-231),GI50 (NCI-H522),GI50 (A549),GI50 (SR),GI50 (SN12C),GI50 (SK-OV-3),GI50 (HCC 2998),GI50 (CAKI-1),GI50 (NCI-H460),GI50 (IGROV-1),GI50 (K562),GI50 (OVCAR-3)
NNC(=O)CCSc1ccccc1,> 100 µM (inactive),> 100 µM (inactive),> 100 µM (inactive),> 100 µM (inactive),> 100,> 100 µM (inactive),> 100 µM (inactive),> 100 µM (inactive),> 100 µM (inactive),> 100 µM (inactive),> 100 µM (inactive),> 100 µM (inactive),> 100 µM (inactive),> 100 µM (inactive),> 100 µM (inactive),> 100 µM (inactive),> 100 µM (inactive),> 100 µM (inactive),> 100 µM (inactive),> 100 µM (inactive)
NS(=O)(=O)c1ccc(NC(=O)Nc2ccccc2F)cc1,> 100 µM (inactive),> 100 µM (inactive),> 100 µM (inactive),> 100 µM (inactive),> 100,> 100 µM (inactive),> 100 µM (inactive),> 100 µM (inactive),> 100 µM (inactive),> 100 µM (inactive),> 100 µM (inactive),> 100 µM (inactive),> 100 µM (inactive),> 100 µM (inactive),> 100 µM (inactive),> 100 µM (inactive),> 100 µM (inactive),> 100 µM (inactive),> 100 µM (inactive),> 100 µM (inactive)
NC1(C(=O)OCc2ccccc2)CCCC1,15.1 µM (inactive),18.2 µM (inactive),16.3 µM (inactive),41.3 µM (inactive),22.9,16.5 µM (inactive),14.2 µM (inactive),18.8 µM (inactive),15.8 µM (inactive),7.06 µM (inactive),28.8 µM (inactive),33.5 µM (inactive),25.1 µM (inactive),21.9 µM (inactive),28 µM (inactive),19.4 µM (inactive),43.3 µM (inactive),18.5 µM (inactive),14.8 µM (inactive),11.6 µM (inactive)
COc1ccc(/C(Cl)=C(\C=O)c2cc(OC)c(OC)c(OC)c2)cc1OC,23.8 µM (inactive),19.7 µM (inactive),23 µM (inactive),37.9 µM (inactive),19.8,15 µM (inactive),10.8 µM (inactive),29.5 µM (inactive),68.5 µM (inactive),7.38 µM (inactive),33.3 µM (inactive),> 100 µM (inactive),23.2 µM (inactive),72.4 µM (inactive),26.4 µM (inactive),22.9 µM (inactive),18.5 µM (inactive),44.5 µM (inactive),25.7 µM (inactive),27.7 µM (inactive)
NCC(=O)C(O)C(O)C(O)CO (stereo not given),> 100 µM (inactive),> 100 µM (inactive),> 100 µM (inactive),> 100 µM (inactive),> 100,> 100 µM (inactive),> 100 µM (inactive),> 100 µM (inactive),> 100 µM (inactive),> 100 µM (inactive),> 100 µM (inactive),> 100 µM (inactive),> 100 µM (inactive),> 100 µM (inactive),> 100 µM (inactive),> 100 µM (inactive),> 100 µM (inactive),> 100 µM (inactive),> 100 µM (inactive),> 100 µM (inactive)
O=C1/C(=C/c2c(Cl)[nH]c3ccccc23)c2ccccc2N1c1ccccc1,5.52 µM (inactive),3.66 µM (inactive),5.05 µM (inactive),10.4 µM (inactive),3.14,5.79 µM (inactive),2.92 µM (inactive),4.94 µM (inactive),6.4 µM (inactive),3.05 µM (inactive),5.18 µM (inactive),3.64 µM (inactive),6.19 µM (inactive),2 µM (inactive),8.97 µM (inactive),8.3 µM (inactive),3.59 µM (inactive),4.39 µM (inactive),4.1 µM (inactive),1.79 µM (inactive)
CSc1nc2ccccc2c(=O)n1-c1cccc(C)c1,99.1 µM (inactive),53.1 µM (inactive),> 100 µM (inactive),19.9 µM (inactive),36.2,> 100 µM (inactive),39.4 µM (inactive),> 100 µM (inactive),> 100 µM (inactive),67.8 µM (inactive),94.2 µM (inactive),15.7 µM (inactive),> 100 µM (inactive),> 100 µM (inactive),15.6 µM (inactive),95.1 µM (inactive),36 µM (inactive),39.2 µM (inactive),33 µM (inactive),> 100 µM (inactive)
